What was measured:
[1] = system: various human tumor cells; test: In vitro activity of compound Nr. 54 on various human tumor cells; assay type: cell-based
Experimental: (§1) HepG2 cells plated at a density of 20,000 cells/ml in 12-well plastic dishes. Cultivation occured in Richters IMEM-ZO nutrient medium with 5% fetal calf serum (FCS) in a tissue culture incubator with a gas mixture of 5% CO2 and 95% air at a temperature of 37° C. One day after planting, the culture medium was aspirated from the cells and replaced by fresh medium which contained the respective concentrations of the test substances. For the individual concentrations and the controls without test substances, three-fold batches were done for each. Three days after the beginning of treatment, the medium was again renewed with the test compounds. After six days of substance incubation, the test was ended and the protein amount in the individual wells was determined with the sulforhodamin-B-method (according to P. Skehan et al: New Colorimetric Cytotoxicity Assay for Anticancer-Drug Screening. J. Natl. Cancer Inst. 82:1107-1112, 1990). The IC50-values (defined as that concentration in which the cell growth was inhibited by 50%) was taken from the dose-response curves and given as a comparative measurement for the activity of the test compounds.
The compounds of formula (I) and their salts permit a therapeutic use in malignant illnesses of humans and animals through their excellent inhibition of the growth of tumor cells. The anti-neoplastic activity of the described substances can be used for prophylactic, adjunct, palliative, and curative treatment of solid tumors, leukemic illnesses and lymphomas as well as for decreasing or preventing metastasis formation in humans and animals. The therapeutic use is possible in the following illnesses for example: gynecological tumors, such as of the uterus or the vagina, ovarian carcinomas, testicle tumors, prostate carcinomas, skin cancer, kidney cancer, bladder tumors, esophagus carcinomas, stomach cancer, rectal carcinomas, pancreas carcinomas, thyroid cancer, adrenal tumors, leukemia and lymphomas, such as Hodgkin's disease, tumor illnesses of the CNS, soft-tissue sarcomas, bone sarcomas, benign and malignant mesotheliomas, but especially intestine cancer, liver cancer, breast cancer, bronchial and lung carcinomas, melanomas, acute and chronic leukemias. Thereby, benign papillomatosis tumors are also considered for therapy. The broad activity of the new compounds was tested in vitro on various human tumor cells Thereby, the following IC50 values were obtained for compound Nr.

HepG2 cells = test: Growth inhibition of HepG2 cells, six days of substance incubation, sulforhodamin-B protein determination; assay type: cell-based; conditions: Homo sapiens, 144 h
Experimental: as §1

[2] = system: freshly isolated lymphocytes; test: Immunosuppressing activity: vitality of freshly isolated spleen lymphocytes after 2 days, flow-through cytometry (propidium iodide / 3,3'-dihexyloxacarbocyanin iodide); assay type: cell-based; conditions: Lymphocyte, 48 h; Swiss mouse spleen lymphocytes, vital cells after 2 days, flow-through cytometer
From the text: Many anti-tumor agents have not only a cytotoxic effect on tumor cells, but also on the blood cell system. This leads to a weakening of the immune defence, which can, in turn, be specifically employed to suppress the rejection reaction after an organ transplantation for example. Therefore, a use of the main compounds, optionally in combination with other compounds effective for these indications is suitable in diseases such as psoriasis or autoimmune diseases. In order to test the possibility for a therapeutic use in illnesses of this type, the substance activity was tested on freshly isolated lymphocytes as follows: […]
The cells were plated at a density of ca. 500,000 cells/well/ml in a 12-well plate, 1 ml doubly concentrated test substance solution was pipetted per well and this was subsequently incubated in a tissue culture incubator at 37° C. and 5% CO2. […] Subsequently, 10,000 cells per each sample were measured on a flow-through cytometer and the percentage amount of vital cells in the population was determined. By means of the dose-response curves, IC50-values were calculated which were also employed in the following Tables for the characterization of the individual substances: […]

| Compound | IC50 (HepG2 cells) | melting point | other results |
| --- | --- | --- | --- |
| O=C(CCc1cccnc1)NCCCCC1CCN(C(c2ccccc2)c2ccccc2)CC1 [Substance 54, N-[4-(1-diphenylmethyl-piperidin-4-yl)-butyl]-3-(pyridin-3-yl)-propionamide] | 20 nM |  | IC50 ([1]; MCF7, cell line MCF-7, ER-positive mammacarcinoma): 80 nM; IC50 ([1]; cell line HT-29, colon carcenoma): 80 nM; IC50 ([1]; cell line HepG2, hepatocellular carcinoma): 20 nM; IC50 ([1]; cell line Namalwa, Burkitt's lymphoma): 50 nM; IC50 ([1]; cell line Saos-2, osteosarcoma): 20 nM; IC50 ([1]; cell line THP-1, monocytic leukemia): 30 nM; IC50 [2]: 3 nM |
| CCN(CCCCC1CCN(C(c2ccccc2)c2ccccc2)CC1)C(=O)CCc1cccnc1 [Substance 68, N-[4-(1-diphenylmethyl-piperidin-4-yl)-butyl]-N-ethyl-3-(pyridin-3-yl)-propionamide] |  | 72 to 74 °C |  |
| O=C(COc1cccnc1)NCCCCC1CCN(C(c2ccccc2)c2ccccc2)CC1 [Substance 84, N-[4-(1-diphenylmethyl-piperidin-4-yl)-butyl]-2-(pyridin-3-yloxy)-acetamide] | 80 nM | 103 to 105 °C |  |
| O=C(CCc1cccnc1)NCCCCCC1CCN(C(c2ccccc2)c2ccccc2)CC1 [Substance 101, N-[5-(1-diphenylmethyl-piperidin-4-yl)-pentyl]-3-(pyridin-3-yl)-propionamide] | 30 nM | 112 to 114 °C |  |
| O=C(CCc1cccnc1)NCCCCNC(=O)C1CCCN(C(c2ccccc2)c2ccccc2)C1 (stereo not drawn) [Substance 106, N-[4-(1-diphenylmethyl-piperidin-3-yl-carbonylamino)-butyl]-3-(pyridin-3-yl)-propionamide] |  | 159 to 161 °C |  |
| O=C(CCc1cccnc1)NCCCCC1CCN(C(=O)c2ccccc2)CC1 [Substance 162, N-[4-(1-benzoylpiperidin-4-yl)-butyl]-3-(pyridin-3-yl)-propionamide] |  | 72 to 74 °C |  |

— US20030162972A1, “Pyridyl alkane acid amides as cytostatics and immunosupressives” (Klinge Pharma GmbH, priority 1996, published 2003)
